Data published in ChEMBL document CHEMBL1133251, “Synthesis and biological evaluation of 1-azabicyclo-[3.2.1]octanes: new dopamine transporter inhibitors” (Bioorg Med Chem Lett, 2000).

What was measured:
[1] = target: Norepinephrine transporter (Rattus norvegicus, UniProt Q9WTR4); assay: Inhibition of [3H]NE binding to norepinephrine transporter of rat brain synaptosomes; format: subcellular
[2] = target: Sodium-dependent serotonin transporter (Rattus norvegicus, UniProt P31652); assay: Inhibition of [3H]-5-HT binding to serotonin transporter of rat brain synaptosomes; format: subcellular
Sodium-dependent serotonin transporter, sequence (P31652 whole entry): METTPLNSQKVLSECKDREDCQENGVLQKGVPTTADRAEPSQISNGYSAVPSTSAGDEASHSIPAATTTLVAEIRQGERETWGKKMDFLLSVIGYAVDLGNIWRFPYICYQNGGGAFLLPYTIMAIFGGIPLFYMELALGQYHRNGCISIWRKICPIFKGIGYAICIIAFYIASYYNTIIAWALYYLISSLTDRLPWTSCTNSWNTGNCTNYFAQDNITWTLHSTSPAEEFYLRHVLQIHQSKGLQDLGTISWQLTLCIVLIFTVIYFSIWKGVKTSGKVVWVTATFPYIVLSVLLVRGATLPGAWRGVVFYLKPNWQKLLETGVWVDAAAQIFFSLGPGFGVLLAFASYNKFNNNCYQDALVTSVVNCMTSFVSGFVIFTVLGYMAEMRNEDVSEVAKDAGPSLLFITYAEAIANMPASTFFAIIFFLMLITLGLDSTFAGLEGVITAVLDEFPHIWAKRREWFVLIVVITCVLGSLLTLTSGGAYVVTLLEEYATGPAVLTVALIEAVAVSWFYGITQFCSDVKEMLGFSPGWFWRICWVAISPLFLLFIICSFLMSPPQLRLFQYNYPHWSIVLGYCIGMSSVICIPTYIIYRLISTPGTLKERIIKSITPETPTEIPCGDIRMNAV

[3] = target: T1, Sodium-dependent dopamine transporter (Rattus norvegicus, UniProt P23977); assay: Inhibition of [3H]- Mazindol binding to dopamine transporter of rat striatal membrane.
T1 sequence (P23977 whole entry): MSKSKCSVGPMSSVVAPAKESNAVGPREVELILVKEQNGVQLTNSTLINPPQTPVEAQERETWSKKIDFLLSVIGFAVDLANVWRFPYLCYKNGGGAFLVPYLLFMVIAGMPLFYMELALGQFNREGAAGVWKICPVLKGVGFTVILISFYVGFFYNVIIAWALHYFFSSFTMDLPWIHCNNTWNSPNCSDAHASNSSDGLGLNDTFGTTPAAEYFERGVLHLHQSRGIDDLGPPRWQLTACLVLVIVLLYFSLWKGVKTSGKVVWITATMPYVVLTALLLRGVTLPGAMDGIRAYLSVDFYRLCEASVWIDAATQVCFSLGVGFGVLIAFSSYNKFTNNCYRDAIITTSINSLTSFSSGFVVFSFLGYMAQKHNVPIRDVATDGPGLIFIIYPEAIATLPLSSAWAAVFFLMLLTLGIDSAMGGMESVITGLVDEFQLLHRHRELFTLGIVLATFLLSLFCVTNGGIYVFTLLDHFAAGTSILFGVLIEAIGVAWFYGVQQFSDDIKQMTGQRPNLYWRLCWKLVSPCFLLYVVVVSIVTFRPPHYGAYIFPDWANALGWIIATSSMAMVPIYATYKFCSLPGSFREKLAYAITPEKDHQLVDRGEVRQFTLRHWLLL

[4] = target: T1, Sodium-dependent dopamine transporter; assay: Inhibition of [3H]DA binding to dopamine transporter of rat brain synaptosomes; format: subcellular

Norepinephrine transporter, sequence (Q9WTR4 whole entry): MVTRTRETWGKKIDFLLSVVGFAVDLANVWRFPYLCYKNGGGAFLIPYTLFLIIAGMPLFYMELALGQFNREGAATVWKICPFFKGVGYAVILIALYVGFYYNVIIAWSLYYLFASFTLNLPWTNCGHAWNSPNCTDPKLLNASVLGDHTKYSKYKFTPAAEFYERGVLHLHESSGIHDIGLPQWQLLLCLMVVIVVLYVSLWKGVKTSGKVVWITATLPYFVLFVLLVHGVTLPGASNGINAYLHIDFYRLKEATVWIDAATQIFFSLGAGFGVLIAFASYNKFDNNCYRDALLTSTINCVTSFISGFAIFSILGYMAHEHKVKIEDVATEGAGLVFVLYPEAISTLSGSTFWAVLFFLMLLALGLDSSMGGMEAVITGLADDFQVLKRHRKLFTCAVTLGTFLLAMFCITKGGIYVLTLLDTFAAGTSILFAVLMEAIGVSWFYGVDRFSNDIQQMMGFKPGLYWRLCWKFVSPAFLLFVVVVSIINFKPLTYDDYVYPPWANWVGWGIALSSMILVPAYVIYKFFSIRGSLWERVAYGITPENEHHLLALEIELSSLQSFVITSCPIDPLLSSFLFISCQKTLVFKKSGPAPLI

Compound: CO/N=C1\CN2CC[C@H](c3ccc(Cl)cc3)C1C2 (stereo in doubt; (+)-7)
- Ki [1]: 871 nM
- Ki [2]: 2640 nM

Compound: COC(=O)C1CN(C)CCC1c1ccc(Cl)cc1 (single isomer, unassigned; (+))
- Ki [3]: 248 nM
- Ki [4]: 228 nM
- Ki [1]: 90 nM
- Ki [2]: 5880 nM

Compound: CO/N=C1/CN2CC[C@@H](c3ccc(Cl)cc3)C1C2 (some centres undefined)
- Ki [1]: 232 nM
- Ki [2]: > 2000 nM

Compound: CN1CCC(c2ccc(Cl)cc2)C(C(=O)OCCCc2ccccc2)C1 (single isomer, unassigned; (+))
- Ki [3]: 1490 nM
- Ki [4]: 1420 nM
- Ki [1]: 72 nM
- Ki [2]: 2160 nM

Compound: CO/N=C1\CN2CC[C@@H](c3ccc(Cl)cc3)C1C2 (stereo in doubt; (-)-7)
- Ki [1]: 652 nM
- Ki [2]: 2530 nM

Compound: CC(C)(C)O/N=C1\CN2CC[C@@H](c3ccc(Cl)cc3)C1C2 (some centres undefined)
- Ki [3]: 641 nM
- Ki [4]: 725 nM
- Ki [1]: 287 nM
- Ki [2]: 137 nM

Compound: CO/N=C1/CN2CC[C@H](c3ccc(Cl)cc3)C1C2 (some centres undefined)
- Ki [1]: 240 nM
- Ki [2]: 856 nM

Compound: CO/N=C1\CN2CC[C@H](c3ccc(Cl)cc3)C1C2 (stereo in doubt; (-)-6)
- Ki [1]: 305 nM
- Ki [2]: 503 nM

Compound: CO/N=C1\CN2CC[C@@H](c3ccc(Cl)cc3)C1C2 (single isomer, unassigned; (+))
- Ki [1]: > 4000 nM
- Ki [2]: 1790 nM

Compound: CN1CCC(c2ccc(Cl)cc2)C(C(=O)OCCCCCc2ccccc2)C1 (single isomer, unassigned; (+))
- Ki [3]: 52 nM
- Ki [4]: 53 nM
- Ki [1]: 382 nM
- Ki [2]: 1790 nM

Compound: Clc1ccc([C@@H]2CCN3C/C(=N\OCc4ccccc4)C2C3)cc1 (some centres undefined)
- Ki [4]: 1860 nM
- Ki [1]: 1550 nM
- Ki [2]: 117 nM

Compound: Clc1ccc([C@@H]2CCN3C/C(=N\OCCCc4ccccc4)C2C3)cc1 (some centres undefined)
- Ki [3]: 53 nM
- Ki [4]: 41 nM
- Ki [1]: 483 nM
- Ki [2]: 292 nM

Compound: CN1CCC(c2ccc(Cl)cc2)C(C(=O)OCCC(c2ccccc2)c2ccccc2)C1 (single isomer, unassigned; (+))
- Ki [3]: 420 nM
- Ki [4]: 1160 nM
- Ki [1]: 3140 nM
- Ki [2]: 2590 nM
